# Like-named read-outs stand apart in the source and are kept apart here.
# Columns and labels:
# LogP of flubendazole = assay type: physicochemical
# Text: (§1) Table 1 Physicochemical Properties of Flubendazole (FLU) | column: Value
# [1] = Apparent permeability (Papp); assay type: in vitro ADME; details: not told, AB
# Text: as §1
# Onchocerca volvulus = tested on: Onchocerca volvulus; parameters: method as in PMID 6130195; details: after 12 months of follow-up; 5 weekly injections; cited from earlier work
# [2] = Solubility in ambient conditions; assay type: physicochemical
# pKa of flubendazole = assay type: physicochemical
structure (smiles),measurement,setting,value
"COC(=O)Nc1nc2cc(C(=O)c3ccc(F)cc3)ccc2[nH]1 [FLU, flubendazole]",logP,LogP of flubendazole,3
same,Papp at 10 μM,[1],33.8 ×10⁻⁶ cm/s
same,Activity against Onchocerca volvulus compared with diethylcarbamazine,Onchocerca volvulus,superior activity
same,solubility,"[2]; acetone, organic solvent or mixture, read-out: Solubility in acetone",180 µg/mL
same,solubility,"[2]; dichloromethane, organic solvent or mixture, read-out: Solubility in dichloromethane",140 µg/mL
same,solubility,"[2]; formic acid, organic solvent or mixture, read-out: Solubility in formic acid",340000 µg/mL
same,solubility,"[2]; methanol, organic solvent or mixture, read-out: Solubility in methanol",110 µg/mL
same,solubility,"[2]; water, read-out: Solubility in water",5 µg/mL
same,pKa,pKa of flubendazole,9.6
same,pKa,pKa of flubendazole; carbamate group,3.6
